Experimental data reported in ChEMBL document CHEMBL3046883, “Evaluation of insecticidal activity of diterpenes and lignans from Aristolochia malmeana against Anticarsia gemmatalis” (2008).
Activity calls are given as the source filed them. The rule behind the calls is not given here.

Tested on: Anticarsia gemmatalis
Test: Insecticidal activity against Anticarsia gemmatalis (velvetbean caterpillar) third-instar larvae exposed to compound through topical dosing at mesothorax region assessed as induction of larval mortality
Assay type: functional

Row | SMILES | LD50 | LD10 [µg/µL] | inhibition
1 | O=C1OC[C@H](Cc2ccc3c(c2)OCO3)[C@H]1Cc1ccc2c(c1)OCO2 | inactive | – | –
2 | COc1ccc(C[C@H]2COC(=O)[C@@H]2Cc2ccc3c(c2)OCO3)cc1OC [(-)-KUSUNOKININ] | 230.1 µg/µL | 9.3 | Dose-dependent effect
3 | C=C1C=C(C)[C@]2(C)CC[C@@H](C)[C@](C)(CC/C(C)=C/C(=O)O)[C@H]2C1 | inactive | – | –
